# Structures can show the parent of a compound that is named as a salt. No end group written: not given here.
# How the values were obtained:
# MasR [1] = tested on: MasR; parameters: method as in Gaidarov et al. (2018); settings: 30 min forskolin pre-incubation, 60 min with ligand; ref Gaidarov et al. (2018); cited from earlier work
# human MasR = biological target: T1, human MasR (Homo sapiens, UniProt P04201); experiment: cAMP accumulation, forskolin-stimulated, in MasR-transfected HEK293T cells (competition of [^3H]cAMP for PKA); assay type: cell-based; settings: 1 mM IBMX
# T1 construct: host or cells: HEK293T, transient transfection
# T1 sequence (P04201 1-325): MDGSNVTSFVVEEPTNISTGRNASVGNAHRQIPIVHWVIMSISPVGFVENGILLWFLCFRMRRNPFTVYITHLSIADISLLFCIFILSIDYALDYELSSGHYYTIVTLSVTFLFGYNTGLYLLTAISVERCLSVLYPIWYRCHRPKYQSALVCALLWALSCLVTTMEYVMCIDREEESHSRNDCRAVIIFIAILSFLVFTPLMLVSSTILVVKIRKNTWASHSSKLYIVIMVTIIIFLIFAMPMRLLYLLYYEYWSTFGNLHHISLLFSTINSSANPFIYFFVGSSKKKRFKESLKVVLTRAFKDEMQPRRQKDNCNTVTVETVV
# Procedure: A pcDNA3.1(+)-myc-MasR expression construct corresponding to the human MasR (accession number: NM_002377.2) fused to the c-myc tag peptide at N-terminal was acquired from Life Technologies (Grand Island, NY, United States). An empty vector [pcDNA 3.1 (+)] was used both as negative control and to deliver an equal amount of plasmid per transfection in all the experiments.
# Cultures were maintained at 37°C in humidified atmosphere containing 5% CO2. For transient transfections, cells were grown to 80–90% confluency and the cDNA constructs were transfected using the K2 Transfection System (Biontex, Munich, Germany). The transfection protocol was optimized as recommended by the suppliers. Assays were performed 48 h after transfection. […] The transfection protocol was optimized as recommended by the suppliers. Assays were performed 48 h after transfection.
# For determination of cAMP basal levels, transfected cells were seeded in 12 wells dishes, 24 h later 100% confluent cells were starved for 2 h and pretreated, when indicated, for 1 h with pertussis toxin (100 ng/ml) and incubated later for 30 min in basal culture medium supplemented with 1 mM IBMX at 37°C. […] The ethanol phase was then dried, and the residue resuspended in 50 mM Tris-HCl pH 7.4, 0.1% BSA. cAMP content was determined by competition of [^3H]cAMP for PKA, as previously described ([Davio et al., 1995]).
# HEK293T cells = experiment: cAMP accumulation, forskolin-stimulated, in empty-vector (pcDNA 3.1) HEK293T cells; assay type: cell-based, human; settings: HEK293T transfected with empty vector; 1 mM IBMX, 1 μM forskolin; ligand 5 min; three independent experiments
# Procedure: For time-course assays, transfected cells were seeded in 24 wells dishes and after 24 h, 100% confluent cells were starved for 2 h and incubated 5 min in basal culture medium supplemented with 1 mM IBMX at 37°C, followed by exposure to 1 μM forskolin for 5, 10, 15, 30, or 60 min. In concentration response assays, transfected cells were seeded in 24 wells dishes after 24 h, 100% confluent cells were starved for 2 h and incubated 5 min in basal culture medium supplemented with 1 mM IBMX at 37°C, followed by 10 min exposure to 1 μM forskolin to increase basal cAMP levels, and incubated for 5 min with indicated concentrations of Ang-(1–7) or AVE 0991. For all cAMP determinations, the reactions were stopped by ethanol addition followed by centrifugation at 2,000 g for 10 min. The ethanol phase was then dried, and the residue resuspended in 50 mM Tris-HCl pH 7.4, 0.1% BSA. cAMP content was determined by competition of [^3H]cAMP for PKA, as previously described ([Davio et al., 1995]).
# heart = settings: orally active; ref Ferreira et al., 2007; cited from earlier work
# Source text: The physiological relevance of the constitutive activity of the MasR remains to be determined. Constitutive activity of GPCRs for various neurotransmitters contributes to basal neuronal activity ([Seifert and Wenzel-Seifert, 2002]). The mRNA encoding the MasR has been detected in various regions of the rat and mouse brain ([Young et al., 1988]; [Bunnemann et al., 1990]; [Martin et al., 1992]; [Metzger et al., 1995]). In addition, it has been reported that MasR-KO mice have alterations of the CNS ([Walther et al., 1998], [2000a],[b]). Thus, the constitutive activity of the MasR could play a reg ...
# AT1R mRNA = AT1R mRNA by qPCR after siRNA transfection of HEK293T cells; assay type: cell-based, human; settings: siRNA 100 nM, 48 h after transfection, β-Actin, three independent experiments
# Procedure: HEK293T (human embryonic kidney) and A549 (human lung carcinoma) cells were cultured in Dulbecco’s modified Eagle’s medium (DMEM) supplemented with 10% fetal calf serum and 50 μg/ml gentamicin. Cultures were maintained at 37°C in humidified atmosphere containing 5% CO2. For transient transfections, cells were grown to 80–90% confluency and the cDNA constructs were transfected using the K2 Transfection System (Biontex, Munich, Germany). The transfection protocol was optimized as recommended by the suppliers. Assays were performed 48 h after transfection. […]
# Total RNA was isolated from wild type or transfected HEK293T cells using Quick-Zol reagent (Kalium Technologies, Bernal, Argentina) following the manufacturer’s instructions. […] Quantitative real-time PCR (qPCR) was performed in triplicate on the Rotor Gene Q cycler (Qiagen, Hilden, Germany) using the resulting cDNA, the HOT FIREPol EvaGreen qPCR Mix Plus (Solis BioDyne, Tartu, Estonia) for product detection, and the following primers: human MasR (NM_002377.2) forward, 5′-[…] -3′ and reverse 5′-[…]-3′; human AT1R (M93394.1) forward, 5′-[…]-3′ and reverse, 5′-[…]-3′; human AT2R (NM_000686.4) forward, 5′-[…]-3′ and reverse 5′-[…]-3′; and human β-Actin forward, 5′-[…]-3′ and reverse 5′-[…]-3′. […]
# [2] = tested on: rat proximal straight tubule; settings: against 10^-12 and 10^-8 M Ang-(1–7); ref Garcia and Garvin (1994); cited from earlier work
# Source text: (§1) The analysis of the interaction between Ang-(1–7) and the AT1R originated discrepancies. […] In addition, [Teixeira et al. (2017)] by performing competition binding assays using ...
# MasR [3] = tested on: MasR; parameters: method as in 2 sources, one per row (each row's own in cited_ref): ref Bikkavilli et al., 2006; Shemesh et al., 2008; Zhang et al., 2012; Tirupula et al., 2014 ||| ref Dong et al., 2001; settings: ref Dong et al., 2001; cited from earlier work
# Mas receptor = settings: ref Tetzner et al., 2016; cited from earlier work
# Source text: (§2) The reasons for this discrepancy could rely on the different approaches used to detect the cAMP levels. We desig ...
# MrgD receptor = settings: ref Tetzner et al., 2016; cited from earlier work
# Source text: as §2
# renal AT1R = settings: pM range; reference not clearly printed; cited from earlier work
# Source text: as §1
# AT1R = settings: CHO-K1 cells; ref Kostenis et al., 2005; cited from earlier work
# Source text: The modulation of the activity of ERK1/2 by Ang-(1–7) has been analyzed previously. […] Participation of the M ...
# AT1R (Homo sapiens) [4] = biological target: AT1R (Homo sapiens) (UniProt P30556); experiment: competition binding; settings: cited from earlier work
# AT1R (Homo sapiens) [5] = biological target: AT1R (Homo sapiens) (UniProt P30556); experiment: competition binding with 3H-Ang II; settings: cited from earlier work
# A549 cells = experiment: Intracellular Ca^2+ (Fura-2AM) in A549 cells with endogenous MasR; assay type: cell-based, human; settings: histamine 10^-4 M, 340/380 ratio, 180 s, representative of three independent experiments
# Procedure: Changes in intracellular Ca^2+ concentration were measured using fura-2 acetoxymethyl ester (Fura-2AM) fluorescent indicator. A549 cells were seeded in 96 wells dishes for 24 h (90–100% confluence). […] Fluorescence was measured in a FlexStation 3 microplate reader (Molecular Devices Inc., San Jose, CA, United States). […] After 30 s of initial recording to determine basal levels, 100 nM Ang (1–7) or 100 μM histamine was added in 100 μl final volumes, and the time course of intracellular Ca^2+ mobilization was recorded for 180 s. […] Autofluorescence was quantified by measuring the fluorescence produced by an equivalent suspension of not-loaded cells. Results were expressed as the ratio of fluorescence’s 340/380 over basal. Basal levels were determined as the media of the recorded measurements in the first 30 s for each well.
# MasR (A549 cells) = experiment: Intracellular Ca^2+ (Fura-2AM) in A549 cells transfected with pcDNA 3.1/myc-MasR; assay type: cell-based, human; settings: histamine 10^-4 M, same conditions (Figure 3E,F: empty vector or MasR)
# Procedure: An empty vector [pcDNA 3.1 (+)] was used both as negative control and to deliver an equal amount of plasmid per transfection in all the experiments.
# Changes in intracellular Ca^2+ concentration were measured using fura-2 acetoxymethyl ester (Fura-2AM) fluorescent indicator. […] Fluorescence was measured in a FlexStation 3 microplate reader (Molecular Devices Inc., San Jose, CA, United States). […] After 30 s of initial recording to determine basal levels, 100 nM Ang (1–7) or 100 μM histamine was added in 100 μl final volumes, and the time course of intracellular Ca^2+ mobilization was recorded for 180 s. […] Autofluorescence was quantified by measuring the fluorescence produced by an equivalent suspension of not-loaded cells. Results were expressed as the ratio of fluorescence’s 340/380 over basal. […]
# AT1R (Homo sapiens), sequence (P30556 whole entry): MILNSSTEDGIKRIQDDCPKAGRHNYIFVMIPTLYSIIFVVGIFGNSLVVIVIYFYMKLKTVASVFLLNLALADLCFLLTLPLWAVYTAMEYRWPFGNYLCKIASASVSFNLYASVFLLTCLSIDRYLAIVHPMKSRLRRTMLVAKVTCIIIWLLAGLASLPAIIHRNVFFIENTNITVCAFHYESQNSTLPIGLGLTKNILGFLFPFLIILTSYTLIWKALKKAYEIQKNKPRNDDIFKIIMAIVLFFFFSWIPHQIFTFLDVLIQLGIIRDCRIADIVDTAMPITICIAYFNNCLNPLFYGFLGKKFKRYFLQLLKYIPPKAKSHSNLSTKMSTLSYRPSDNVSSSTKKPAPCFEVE
compound,measurement,setting,value
"CCNC(=O)NS(=O)(=O)c1sc(CC(C)C)cc1-c1ccc(Cn2c(-c3ccccc3)nc(OC)c2C=O)cc1 [AVE 0991, 5-formyl-4-methoxy-2-phenyl-1-[[4-[2-ethylaminocarbonylsulfonamido-5-isobutil-3-thienyl]phenyl]-methyl]imidazole]",forskolin-stimulated cAMP levels in MasR-transfected HEK293 cells,MasR [1],no change in forskolin-stimulated cAMP levels
same,modulation of cAMP levels,"human MasR; HEK293T overexpressing MasR, 1 μM forskolin, ligand 5 min",concentration-dependent decrease in the production of cAMP
same,"pEC50, concentration-dependent decrease in the production of cAMP","human MasR; HEK293T transfected with pcDNA3.1/c-myc-MasR, 10 min 1 μM forskolin, then 5 min ligand, 37°C, mean ± SEM of three independent experiments",7.75 ± 0.40
same,"modulation of cAMP levels, empty vector",HEK293T cells,did not alter cAMP levels
same,"heart dysfunction, AVE 0991",heart,beneficial effects obtained in heart dysfunction
AT1R siRNA: human AT1R siRNA (AUACGUGACUGUAGAAUUG) (chemistry not given here),reduction of AT1R mRNA levels versus scrambled siRNA,AT1R mRNA,~50%
CCCCc1nc(Cl)c(CO)n1Cc1ccc(-c2ccccc2-c2nn[nH]n2)cc1 [losartan],block of Ang-(1–7) effects on absorption,[2],both effects were blocked by losartan
"NPFF: neuropeptide FF (FLFQPQRF; ends and bridges not checked; UniProt O15130 69-76, looked up)","conventional G protein signaling, NPFF",MasR [3],conventional G protein signaling has been reported
D-Pro7-Ang-(1–7),"antagonism of Ang-(1–7)-induced cAMP increase, HEK293 overexpressing Mas",Mas receptor,blocked
same,"antagonism of Ang-(1–7)-induced cAMP increase, HEK293 overexpressing MrgD",MrgD receptor,blocked
"Ang II: angiotensin II, of the classical RAS axis (DRVYIHPF; Angiotensin-2; UniProt P01019 25-32, looked up)",affinity of renal AT1R on proximal tubules,renal AT1R,very high affinity for Ang II (in the pM range)
same,Ang II-induced IP1 production and Ca^2+ increase on MasR/AT1R coexpression,AT1R,significantly decreased both the Ang II-induced production of IP1 and the increase of intracellular Ca^2+ levels mediated by the AT1R
Angiotensin-(1-7) (from UniProt P01019),Ki,AT1R (Homo sapiens) [4],360 nM
same,Ki,AT1R (Homo sapiens) [5],200 nM
"NCCc1c[nH]cn1 [histamine, histamine dihydrochloride]","intracellular Ca^2+ levels, A549 cells (endogenous MasR), positive control",A549 cells,significant increase in cytosolic Ca^2+ levels
same,"intracellular Ca^2+ levels, transfected A549 cells, positive control",MasR (A549 cells),important increase in Ca^2+ levels
D-Ala7-Ang-(1–7),"antagonism of Ang-(1–7)-induced cAMP increase, HEK293 overexpressing Mas",Mas receptor,blocked
same,"antagonism of Ang-(1–7)-induced cAMP increase, HEK293 overexpressing MrgD",MrgD receptor,blocked

# — publication PMC6395383, “Participation of Gαi-Adenylate Cyclase and ERK1/2 in Mas Receptor Signaling Pathways” (Frontiers in Pharmacology, 2019)
